Test results reported in patent US20080255111A1, “Tissue Factor Production Inhibitor” (SANKYO COMPANY LIMITED, priority 2004, published 2008).

Test system: tissue factor mRNA in LPS-stimulated mouse peritoneal macrophages
Assay: Assay of mouse peritoneal macrophage tissue factor mRNA
Assay type: cell-based
Conditions: 18 h, then LPS 100 ng/ml for 6 h, relative to cyclophilin mRNA, DMSO treatment = 100, read-out: Expressed Amount of Tissue Factor mRNA; for mrna remaining at 10 µM: test compound 10 μM; for mrna remaining at 1 µM: test compound 1 μM
Protocol: 3 ml of thioglycolate (Sigma Chemical) were administered into the abdominal cavity of male C57BL/6J mice (Charles River) followed 4 days later by intraperitoneal administration of 10 ml of phosphate-buffered saline (hereinafter PBS) containing heparin (Hishiyama Pharmaceutical) at a concentration of 5 U/ml and recovery of intraperitoneal macrophages using a syringe. After centrifuging the recovered macrophages at 1000 rpm and 4° C. for 5 minutes, the supernatant was discarded followed by suspending in RPMI 1640 medium (Gibco Laboratories) containing normal fetal bovine serum (hereinafter FBS) at a concentration of 10%. The macrophages were adjusted to a concentration of 4×10^6 cells/ml, disseminated in 1 ml aliquots in a 12-well plate, and cultured for 3 hours at 37° C. using a CO2 incubator. Subsequently, the cells were washed with PBS, and the medium was replaced with RPMI medium containing lipoprotein-deficient serum (hereinafter LPDS) (Sigma Chemical) at a concentration of 5%. Test compounds dissolved in dimethylsulfoxide (DMSO) at a concentration of 1 μM were added to make a final DMSO concentration of 0.1%, and after warming for 18 hours at 37° C., lipopolysaccharide (hereinafter LPS) (Sigma Chemical) was added to make a concentration of 100 ng/ml. The cells were recovered 6 hours later, RNA was extracted using the Rneasy Mini Kit (Qiagen), and after carrying out a reverse transcription reaction using the First-Strand cDNA Synthesis Kit (Amersham Biosciences), the expressed amounts of tissue factor mRNA and cyclophylin mRNA were measured by quantitative RT-PCR (TaqMan, Applied Biosystems 7700 Sequence Detector).
Quantitative RT-PCR for tissue factor was carried out using the aforementioned TF-1 and TF-2 as primers and TF-P as probes, while quantitative PCR for cyclophilin was carried out using the aforementioned Cyl-1 and Cyl-2 as primers and Cyl-P as probes. Both were carried out by warming for 2 minutes at 50° C. and then for 10 minutes at 95° C., followed by 40 warming cycles consisting of warming for 15 seconds at 95° C. and then for 1 minute at 60° C. The expressed amount of tissue factor mRNA was calculated as a relative value of the expressed amount of cyclophilin mRNA. The expressed amounts of tissue factor mRNA resulting from the test compounds at a concentration of 1 μM or 10 μM based on a value of 100 for the expressed amount of tissue factor mRNA in a case of treatment with DMSO at a concentration of […] are shown in Table 7.

Structure (SMILES)	mrna remaining at 10 µM	mrna remaining at 1 µM
CC(C)(C)OC(=O)c1c(COc2ccc(-c3ccc(C(=O)O)cc3)cc2)ccc(C(F)(F)F)c1O [Reference Example 34, 4′-{[2-(tert-Butoxycarbonyl)-3-hydroxy-4-(trifluoromethyl)benzyl]oxy}-1,1′-biphenyl-4-carboxylic acid]	39%	–
CC(C)(C)OC(=O)c1c(COc2ccc(-c3ccc(CC(=O)O)cc3C(F)(F)F)cc2)ccc(C(F)(F)F)c1O [Reference Example 27, (4′-{[2-(tert-Butoxycarbonyl)-3-hydroxy-4-(trifluoromethyl)benzyl]oxy}-2-trifluoromethyl-1,1′-biphenyl-4-yl)acetic acid]	–	63.5%
CN(C(=S)C1CC1)c1ccc(OCc2cc3c(F)cc(F)cc3n2C(=O)OC(C)(C)C)cc1 [Reference Example 4, tert-Butyl 2-({4-[(cyclopropylcarbonothioyl)(methyl)amino]phenoxy}methyl)-4,6-difluoro-1H-indole-1-carboxylate]	–	57.6%
CC(C)(C)OC(=O)n1c(COc2ccc(-c3ccc(CC(=O)O)c(Cl)c3)cc2)cc2ccc(F)cc21 [Reference Example 10, (4′-([1-(tert-Butoxycarbonyl)-6-fluoro-1H-indol-2-yl]methoxy)-3-chloro-1,1′-biphenyl-4-yl)acetic acid]	–	68.9%
Cc1ccc(Cc2nc3ccc(-n4ccnc4)cc3c(=O)n2-c2ccc(C(O)(C(F)(F)F)C(F)(F)F)cc2C)cc1 [Compound G, 6-(1H-Imidazol-1-yl)-2-(4-methylbenzyl)-3-{2-methyl-4-[2,2,2-trifluoro-1-hydroxy-1-(trifluoromethyl)ethyl]phenyl}-4(3H)-quinazolinone]	44.7%	–
O=S(=O)(c1ccccc1)N(CC(F)(F)F)c1ccc(C(O)(C(F)(F)F)C(F)(F)F)cc1 [Compound A, N-(2,2,2-Trifluoroethyl)-N-{4-[2,2,2-trifluoro-1-hydroxy-1-(trifluoromethyl)ethyl]phenyl}benzenesulfonamide, reference compound]	–	20%
COc1cc(-n2c(Cc3ccccc3)nc3cc(N4CCOCC4)c(F)cc3c2=O)ccc1C(O)(C(F)(F)F)C(F)(F)F [Compound H, 2-Benzyl-6-fluoro-3-{3-methoxy-4-[2,2,2-trifluoro-1-hydroxy-1-(trifluoromethyl)ethyl]phenyl}-7-(4-morpholinyl)-4(3H)-quinazolinone]	56%	–
Cc1cc(C(O)(C(F)(F)F)C(F)(F)F)ccc1-n1c(Cc2cccnc2)nc2ccc(-n3cncn3)cc2c1=O [Compound I, 3-{2-Methyl-4-[2,2,2-trifluoro-1-hydroxy-1-(trifluoromethyl)ethyl]phenyl}-2-(3-pyridylmethyl)-6-(1H-1,2,4-triazol-1-yl)-4(3H)-quinazolinone]	–	48.6%
CC(C)(C)OC(=O)c1c(COc2ccc(-c3cccc(S(C)(=O)=O)c3)cc2)ccc(C(F)(F)F)c1O [Reference Example 29, tert-Butyl 2-hydroxy-6-({[3′-(methylsulfonyl)-1,1′-biphenyl-4-yl]oxy}methyl)-3-(trifluoromethyl)benzoate]	88.4%	–
CC(C)(C)OC(=O)n1c(COc2ccc(-c3ccc(CC(=O)O)s3)cc2)cc2ccc(F)cc21 [Reference Example 11, [5-(4-{[1-(tert-Butoxycarbonyl)-6-fluoro-1H-indol-2-yl]methoxy}phenyl)-2-thienyl]acetic acid]	–	61.1%
CC(C)(C)OC(=O)c1c(COc2ccc(-c3ccc(CC(=O)O)c(F)c3)cc2)ccc(C(F)(F)F)c1O [Reference Example 23, (4′-{[2-(tert-Butoxycarbonyl)-3-hydroxy-4-(trifluoromethyl)benzyl]oxy}-3-fluoro-1,1′-biphenyl-4-yl)acetic acid]	–	51.6%
O=c1c2cc(-c3ccccn3)ccc2nc(Cc2ccccc2)n1-c1ccc(C(O)(C(F)(F)F)C(F)(F)F)cc1 [Compound F, 2-Benzyl-6-(2-pyridyl)-3-[4-[2,2,2-trifluoro-1-hydroxy-1-(trifluoromethyl)ethyl]phenyl]-4(3H)-quinazolinone]	–	76.9%
Cc1cc(CC(=O)O)ccc1-c1ccc(OCc2ccc(C(F)(F)F)c(O)c2C(=O)OC(C)(C)C)cc1 [Reference Example 24, (4′-{[2-(tert-Butoxycarbonyl)-3-hydroxy-4-(trifluoromethyl)benzyl]oxy}-2-methyl-1,1′-biphenyl-4-yl)acetic acid]	–	61.8%
CC(C)(C)OC(=O)c1c(COc2ccc(-c3ccc(CC(=O)O)cc3Cl)cc2)ccc(C(F)(F)F)c1O [Reference Example 26, (4′-{[2-(tert-Butoxycarbonyl)-3-hydroxy-4-(trifluoromethyl)benzyl]oxy}-2-chloro-1,1′-biphenyl-4-yl)acetic acid]	–	42.3%
CC(C)(C)OC(=O)c1c(COc2ccc(-c3ccc(C(CO)C(=O)O)cc3)cc2)ccc(C(F)(F)F)c1O (stereo not shown) [Reference Example 32, 2-(4′-{[2-(tert-Butoxycarbonyl)-3-hydroxy-4-(trifluoromethyl)benzyl]oxy}-1,1′-biphenyl-4-yl)-3-hydroxypropanoic acid]	48.5%	–
CCc1cc(CC(=O)O)ccc1-c1ccc(OCc2ccc(C(F)(F)F)c(O)c2C(=O)OC(C)(C)C)cc1 [Reference Example 15, (4′-{[2-(tert-Butoxycarbonyl)-3-hydroxy-4-(trifluoromethyl)benzyl]oxy}-2-ethyl-1,1′-biphenyl-4-yl)acetic acid]	–	55.5%
CC(C)(C)OC(=O)c1c(COc2ccc(-c3ccc(CC(=O)O)s3)cc2)ccc(C(F)(F)F)c1O [Reference Example 21, [5-(4-{[2-(tert-Butoxycarbonyl)-3-hydroxy-4-(trifluoromethyl)benzyl]oxy}phenyl)-2-thienyl]acetic acid]	–	68.9%
CC(C)(C)OC(=O)c1c(COc2ccc(-c3ccc(CC(=O)O)cc3N)cc2)ccc(C(F)(F)F)c1O [Reference Example 30, (2-Amino-4′-{[2-(tert-butoxycarbonyl)-3-hydroxy-4-(trifluoromethyl)benzyl]oxy}-1,1′-biphenyl-4-yl)acetic acid]	–	65.6%
CN(C(=O)CC1CC1)c1ccc(OCc2ccc(C(F)(F)F)c(O)c2C(=O)OC(C)(C)C)cc1 [Reference Example 8, tert-Butyl 6-({4-[(cyclopropylacetyl) (methyl)amino]phenoxy}methyl)-2-hydroxy-3-(trifluoromethyl)benzoate]	–	51.8%
O=c1c2cc(OCCO)ccc2nc(Cc2ccccc2)n1-c1ccc(C(O)(C(F)(F)F)C(F)(F)F)cc1 [Compound E, 2-Benzyl-6-(2-hydroxyethoxy)-3-[4-[2,2,2-trifluoro-1-hydroxy-1-(trifluoromethyl)ethyl]phenyl]-4(3H)-quinazolinone]	–	37.7%
CC(C)c1cc(CC(=O)O)ccc1-c1ccc(OCc2ccc(C(F)(F)F)c(O)c2C(=O)OC(C)(C)C)cc1 [Reference Example 33, (4′-{[2-(tert-Butoxycarbonyl)-3-hydroxy-4-(trifluoromethyl)benzyl]oxy}-2-isopropyl-1,1′-biphenyl-4-yl)acetic acid]	37.2%	–
CC(C)(C)OC(=O)c1c(COc2ccc(-c3ccc(CC(=O)O)cc3)cc2)ccc(F)c1O [Reference Example 19, (4′-{[2-(tert-Butoxycarbonyl)-4-fluoro-3-hydroxybenzyl]oxy}-1,1′-biphenyl-4-yl)acetic acid]	51.6%	–
